Compound | melting point [°C]
Cc1c(O)ncnc1C(F)F | 166 to 167
c1ccc(COc2ccc(-c3nc(COc4ccc(CCCCn5ccnc5)cc4)co3)cc2)cc1 | 118 to 120
CCOC(=O)c1c(O)c2cc(Cl)cnc2n(Cc2ccc(OC)cc2)c1=O | 185 to 187
Cc1cc2c(-c3cccc(C=O)c3)c(CC(=O)Nc3ccc(F)cc3C(F)(F)F)c(=O)oc2cc1Cl | 214 to 215
O=[N+]([O-])c1cc(O)c(Cl)cc1F | 106 to 107
O=C1CCCN1CC1CCN(c2ccnc(C(F)(F)F)n2)CC1 | 118 to 120
Cc1ccc(N2C(=O)C(O)=C(C(=O)c3ccc(C(C)C)cc3)C2c2ccc(Cl)cc2)nn1 (configuration not stated) | 258 to 260
Cc1nn(C)c2c(=O)n(C)c(=O)n(C)c12 | 210 to 211
O=C(Nc1cccc(OC2OC(CO)C(O)C2O)c1)C(F)(F)F (configuration not stated) | 133 to 135
COc1ccc(/C=C/C(=O)CC(=O)/C=C/c2ccc(O)cc2)cc1O | 207 to 210
COc1c(C)c(C)c(OC)c(CC[C@@]2(C)CO2)c1C | 47 to 48
CC(C)CC(=O)N[C@@H](CC(C)C)C(=O)N[C@@H](Cc1ccccc1)C(=O)CSCc1ccco1 | 108 to 115
CC(=O)c1cccc(N2CCN(CCC3CCC(NC(=O)CC#N)CC3)CC2)c1 (configuration not stated) | 160
COc1ccc2[nH]c(C)c(/C=C/C(=O)c3ccncc3)c2c1 | 256 to 259
Cc1cncc(C)c1-c1c(C)cc(N)cc1C | 134 to 135
CC(C)(C)OC(=O)NCCNS(=O)(=O)c1ccc(Br)s1 | 106
C#CCNC(=O)c1ncn2c1CN(C)C(=O)c1ccccc1-2 | 213 to 215
CN(C)c1cc(C=O)cc(N(C)C)c1N1CCCCC1 | 114 to 116
CC1=CC2=C(N3CN(N4CCCC4)C=C3N=N2)N(c2cc(Cl)ccc2Cl)C1 | 157
CC12C=CC(=O)C=C1CCC1C2=CCC2(C)C(C(=O)CCl)=CCC12 (configuration not stated) | 136 to 138
CCCCCCOc1ccc(C(=O)Nc2ccc(-n3nc(C(F)(F)F)cc3C(F)(F)F)cc2)cc1 | 153 to 155

Compound | melting point [°C]
Cn1ccc(-c2ccc(C(=O)N3Cc4cccnc4Nc4ccccc43)c(Cl)c2)n1 | 196 to 197
O=CC(Nc1ccc2c(c1)OCC(=O)N2)N1CCC(Cc2ccc(F)cc2)CC1 (configuration not stated) | 156 to 161
CCCCC/C=C\C/C=C\CCCCCCC[C@@H](C[C@@H]1OC(=O)[C@H]1CC)OC(=O)[C@H](CC(C)C)NC=O | 48 to 53
O=C(NCCO)/C(=C/c1ccc(OCC(F)(F)F)cc1)NC(=O)c1ccc(OCCC2CC2)cc1 | 173 to 175
CN(C)S(=O)(=O)N[Si](C)(C)C | 83 to 86
CNC(=O)n1nc(Oc2ccc([N+](=O)[O-])c(C(F)(F)F)c2)cc1C | 139 to 141
COc1ccc2cc([C@H](C)C(=O)OCC(=O)N(C)CC(=O)OCCCO[N+](=O)[O-])ccc2c1 | 41 to 43
COC1CCC(OS(C)(=O)=O)C(CN=[N+]=[N-])O1 (configuration not stated) | 54 to 56
ClCc1ccc2ccc3cccc4ccc1c2c34 | 146 to 148
CCCc1cc2c(c(C)c1O)CCO2 | 72 to 73
CCCCCCCCCCCCCCC(O)C(O)C(N)CO (configuration not stated) | 132 to 134
N#Cc1ccc2[nH]cc(C3CCC(=O)CC3)c2c1 | 162 to 164
COCOc1ccc(-c2ccc3c(c2)C(C)(C)CCC3(C)C)cc1-c1ccc(C(=O)O)cc1 | 137 to 140
CCC1(CC)C(=O)c2cc(O)c(C)c(C)c2C1=O | 141 to 142
COC(=O)c1ccc([N+](=O)[O-])cc1S(=O)(=O)O | 92 to 94
COC(=O)c1cc(C(C)O)c(C(F)(F)F)cc1NC(C)=O (configuration not stated) | 120 to 122
Cc1coc(N(CCCCCCN)c2nc(C)co2)n1 | 124
Cc1ccc2c(c1)C=Cc1sc(C)nc1C2c1cn(CCN2CCCC2)c(=O)[nH]c1=S (configuration not stated) | 198
Cc1nc(NC(=O)c2cnn3c(C(F)F)cc(-c4ccc(C(F)(F)F)cc4)nc23)sc1S(=O)(=O)N(CCO)CCO | 191
NS(=O)(=O)c1ccc(-c2[nH]c3ccc(Cl)cc3c2-c2cccc(Cl)c2)cc1 | 249 to 251

The next lines start with the values.

melting point [°C] | Compound
> 310 | Cc1nc(-c2ccccc2)nc2sc3c(N4CCNCC4)nc(Cl)nc3c12
176 to 179 | COc1nc(C)nc(NC(=O)NS(=O)(=O)c2ccccc2C(=O)Nc2nc[nH]n2)n1
170 to 174 | N#Cc1c(-c2ccccc2)cc(-c2ccccc2)nc1N
173 to 175 | Nc1nc(Oc2ccccc2)c2ncn(CCC(CO)CO)c2n1
141 to 142 | CC(=O)Nc1ccc(OC(C)(C)C(=O)c2ccccc2)cc1
173 to 176 | COC1CCN(c2cc(NC(=O)OC(C)(C)C)c(N)cc2C#Cc2ccccc2)CC1
156 to 158 | COc1cc(OC)nc(-c2c(N)n(S(=O)(=O)C(F)F)c3ccccc23)n1
192 | COc1cccc(-c2nc(N)c(C(N)=O)nc2-c2ccc(=O)n(C(C)C)c2)c1
168 to 169 | CC(C#Cc1cc2ccccc2s1)N(O)C(N)=O (configuration not stated)
109 to 111 | CN(C)C=Nc1ccc(-n2ncnc2-c2ccccc2)cc1
195 to 198 | COc1cc(OC)nc(Oc2ccc3ncccc3c2C(=O)O)n1
91.5 to 93.5 | Cc1ccc(-c2c(N)ncnc2OCCO)cc1
185 to 188 | COCCc1nc2c(N)nc3ccc(Br)cc3c2n1CCCN1CCCC1=O
129 to 130 | Cc1ccc(-c2c(NS(=O)(=O)c3ccc(C(C)(C)C)cc3)nc(S(C)(=O)=O)nc2OCCOCc2ccccc2)cc1
145 to 146 | O=C(OCN1C(=O)c2ccccc2S1(=O)=O)c1ccncc1
110 | O=[N+]([O-])c1cccnc1Nc1ccc(F)cc1F

melting point [°C] | Compound
162 | N#CC1=C(c2ccccc2)Nc2n[nH]cc2C1c1cccc(Cl)c1Cl (configuration not stated)
160 to 161 | O=C(Nc1nc(-c2ccccc2)cs1)C(=O)OC1CCCCC1
205 to 207 | CCCc1c(C(=O)N(C)Cc2ccc3c(Br)c(O)ccc3c2)cnn1-c1ccccc1
200 to 207 | CNC(=O)c1ccccc1Nc1nc(Nc2ccc3c(c2)N(C)CCN(S(C)(=O)=O)C3)ncc1Cl
77 to 78 | FC(F)(F)c1ccc(Oc2ccc3nonc3c2)cc1
79 to 80 | CCOc1ccccc1C(=O)SSc1ccc([N+](=O)[O-])cc1C(Cl)(Cl)Cl
75 to 77 | C[C@H](C(=O)O)[C@H](O)CCCCc1ccccc1
105 to 106 | COC(=O)c1ccc(CCNCC(O)c2ccccc2)cc1 (configuration not stated)
125 to 127 | CC(C)(C)NCC(O)COc1ccc(N)cc1 (configuration not stated)
84 | COc1ccccc1-c1cc(F)cc2c1NC(CN)CO2 (configuration not stated)
235 to 239 | CN(C)c1c(-c2ccc(-c3ccccc3)cc2)nc2ccc(F)cc2c1C(=O)O
266 to 268 | Nc1nc2ccccc2n[n+]1[O-]
88 to 90 | Cc1cccc(-c2n[nH]cc2-c2ccc(F)c(-c3ccc(S(=O)(=O)CCO)cc3)c2)n1
248 | Cc1c(C(=O)O)ncn1Cc1ccc2oc(-c3ccccc3-c3nnn[nH]3)c(Br)c2c1
163 | Cc1c2c(nc3ccccc13)CCN(C(=O)c1ccc(Cl)cc1)CC2

— a melting point compilation (Tetko et al.; mined from patent text by program, amines drawn as free bases though some values may be those of a salt)
